Results from the supplement of paper PMC11208160.

test: recombinant barcode read abundance after kanamycin selection (control-corrected) (log10(CPM+1)); higher = more efficient recombination; sequences stand for … in AGTGCAGAGAAAATCGGCCAGTTTTCTCTGCCTGCAGTCCGCATGCCGT…ATTTATGCAGCGGACTGCCTTTCTCCCAAAGTGATAAACCGGACAGTATCATGGACCGGTTTTCCCGGTAATCCGTATTTGCAAGGTTGGTTTCACT; site = the 11-nt target
Method in brief: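 Values are log10(CPM+1) from a pooled E. coli screen of targets paired with IS621 bridge RNA target-binding loops. Recombination efficiency here means counts per million of recombinant-junction barcodes, averaged and control-corrected. Plates were chloramphenicol/ampicillin LB agar for the control and chloramphenicol/ampicillin/kanamycin with 0.1 mM IPTG, two replicates each.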

| Sequence | recombinant barcode read abundance (log10) |
| --- | --- |
| GCGCGACCTTGGGTTCTAACCTGTTGCTTGC [GCGCGACCTAA_LTGcore_CT_RTGcore_GC] (site GCGCGACCTAA) (LTG core: CT, RTG core: GC) | 0.0896 |
| GCGCGACCTTGGGTTCTAACCTGTTGCTTGT [GCGCGACCTAA_LTGcore_CT_RTGcore_AC] (site GCGCGACCTAA) (LTG core: CT, RTG core: AC) | 0.0798 |
| GCGCGACCTTGGGTTCTAACCTGTTGCTTTC [GCGCGACCTAA_LTGcore_CT_RTGcore_GA] (site GCGCGACCTAA) (LTG core: CT, RTG core: GA) | 0.07 |
| GCGCGACGATGGGTTCTAACCTGTTGCTTAG [GCGCGACCTAA_LTGcore_GA_RTGcore_CT] (site GCGCGACCTAA) (LTG core: GA, RTG core: CT) | 0.0201 |
| GCGCGACGCTGGGTTCTAACCTGTTGCTTAG [GCGCGACCTAA_LTGcore_GC_RTGcore_CT] (site GCGCGACCTAA) (LTG core: GC, RTG core: CT) | 0.0605 |
| GCGCGACGGTGGGTTCTAACCTGTTGCTTAG [GCGCGACCTAA_LTGcore_GG_RTGcore_CT] (site GCGCGACCTAA) (LTG core: GG, RTG core: CT) | 0.048 |
| GCGGGACAATGGGTTCTAACCTGTTGCCTTT [GCGGGACCTAG_LTGcore_AA_RTGcore_AA] (site GCGGGACCTAG) (LTG core: AA, RTG core: AA) | 0.119 |
| GCGGGACAGTGGGTTCTAACCTGTTGCCTAG [GCGGGACCTAG_LTGcore_AG_RTGcore_CT] (site GCGGGACCTAG) (LTG core: AG, RTG core: CT) | 0.28 |
| GCGGGACCATGGGTTCTAACCTGTTGCCTAG [GCGGGACCTAG_LTGcore_CA_RTGcore_CT] (site GCGGGACCTAG) (LTG core: CA, RTG core: CT) | 0.909 |
| GCGGGACCTTGGGTTCTAACCTGTTGCCTCC [GCGGGACCTAG_LTGcore_CT_RTGcore_GG] (site GCGGGACCTAG) (LTG core: CT, RTG core: GG) | 1.24 |
| GCGGGACCTTGGGTTCTAACCTGTTGCCTCT [GCGGGACCTAG_LTGcore_CT_RTGcore_AG] (site GCGGGACCTAG) (LTG core: CT, RTG core: AG) | 0.713 |
| GCGGGACCTTGGGTTCTAACCTGTTGCCTGT [GCGGGACCTAG_LTGcore_CT_RTGcore_AC] (site GCGGGACCTAG) (LTG core: CT, RTG core: AC) | 1.21 |
| GCGGGACCTTGGGTTCTAACCTGTTGCCTTT [GCGGGACCTAG_LTGcore_CT_RTGcore_AA] (site GCGGGACCTAG) (LTG core: CT, RTG core: AA) | 0.927 |
| GCGGGACGCTGGGTTCTAACCTGTTGCCTAG [GCGGGACCTAG_LTGcore_GC_RTGcore_CT] (site GCGGGACCTAG) (LTG core: GC, RTG core: CT) | 0.137 |
| GCGGGACTATGGGTTCTAACCTGTTGCCTAG [GCGGGACCTAG_LTGcore_TA_RTGcore_CT] (site GCGGGACCTAG) (LTG core: TA, RTG core: CT) | 0.11 |
| GCGGGACTCTGGGTTCTAACCTGTTGCCTAG [GCGGGACCTAG_LTGcore_TC_RTGcore_CT] (site GCGGGACCTAG) (LTG core: TC, RTG core: CT) | 0.467 |
| GCGGGACTCTGGGTTCTAACCTGTTGCCTGA [GCGGGACCTAG_LTGcore_TC_RTGcore_TC] (site GCGGGACCTAG) (LTG core: TC, RTG core: TC) | 0.135 |

| Sequence | recombinant barcode read abundance (log10) |
| --- | --- |
| GCGGGACTGTGGGTTCTAACCTGTTGCCTCA [GCGGGACCTAG_LTGcore_TG_RTGcore_TG] (site GCGGGACCTAG) (LTG core: TG, RTG core: TG) | 0.226 |
| GGACACCAATGGGTTCTAACCTGTTGCCTTT [GGACACCCTAG_LTGcore_AA_RTGcore_AA] (site GGACACCCTAG) (LTG core: AA, RTG core: AA) | 0.364 |
| GGACACCCTTGGGTTCTAACCTGTTGCCTGC [GGACACCCTAG_LTGcore_CT_RTGcore_GC] (site GGACACCCTAG) (LTG core: CT, RTG core: GC) | 1.55 |
| GGACACCGCTGGGTTCTAACCTGTTGCCTAG [GGACACCCTAG_LTGcore_GC_RTGcore_CT] (site GGACACCCTAG) (LTG core: GC, RTG core: CT) | 0.105 |
| GGACACCTCTGGGTTCTAACCTGTTGCCTGA [GGACACCCTAG_LTGcore_TC_RTGcore_TC] (site GGACACCCTAG) (LTG core: TC, RTG core: TC) | 0.149 |
| GGACACCTGTGGGTTCTAACCTGTTGCCTAG [GGACACCCTAG_LTGcore_TG_RTGcore_CT] (site GGACACCCTAG) (LTG core: TG, RTG core: CT) | 0.0753 |
| GGACACCTGTGGGTTCTAACCTGTTGCCTCA [GGACACCCTAG_LTGcore_TG_RTGcore_TG] (site GGACACCCTAG) (LTG core: TG, RTG core: TG) | 0.15 |
| GGACACCTTTGGGTTCTAACCTGTTGCCTAA [GGACACCCTAG_LTGcore_TT_RTGcore_TT] (site GGACACCCTAG) (LTG core: TT, RTG core: TT) | 0.175 |
| GGACACCTTTGGGTTCTAACCTGTTGCCTAG [GGACACCCTAG_LTGcore_TT_RTGcore_CT] (site GGACACCCTAG) (LTG core: TT, RTG core: CT) | 0.0765 |
| GGCTCCCATTGGGTTCTAACCTGTTGCGGAG [GGCTCCCCTCC_LTGcore_AT_RTGcore_CT] (site GGCTCCCCTCC) (LTG core: AT, RTG core: CT) | 0.157 |
| GGCTCCCCTTGGGTTCTAACCTGTTGCGGAC [GGCTCCCCTCC_LTGcore_CT_RTGcore_GT] (site GGCTCCCCTCC) (LTG core: CT, RTG core: GT) | 0.0822 |
| GGCTCCCCTTGGGTTCTAACCTGTTGCGGGA [GGCTCCCCTCC_LTGcore_CT_RTGcore_TC] (site GGCTCCCCTCC) (LTG core: CT, RTG core: TC) | 0.302 |
| GGCTCCCCTTGGGTTCTAACCTGTTGCGGGC [GGCTCCCCTCC_LTGcore_CT_RTGcore_GC] (site GGCTCCCCTCC) (LTG core: CT, RTG core: GC) | 0.112 |
| GGCTCCCGCTGGGTTCTAACCTGTTGCGGAG [GGCTCCCCTCC_LTGcore_GC_RTGcore_CT] (site GGCTCCCCTCC) (LTG core: GC, RTG core: CT) | 0.0135 |
| GGCTCCCGGTGGGTTCTAACCTGTTGCGGAG [GGCTCCCCTCC_LTGcore_GG_RTGcore_CT] (site GGCTCCCCTCC) (LTG core: GG, RTG core: CT) | 0.0853 |
| GGCTCCCTATGGGTTCTAACCTGTTGCGGAG [GGCTCCCCTCC_LTGcore_TA_RTGcore_CT] (site GGCTCCCCTCC) (LTG core: TA, RTG core: CT) | 0.233 |
| GGGAGCCACTGGGTTCTAACCTGTTGCTGGT [GGGAGCCCTCA_LTGcore_AC_RTGcore_AC] (site GGGAGCCCTCA) (LTG core: AC, RTG core: AC) | 0.222 |
